Data published in patent publication US20060135432A1, “Agonists and antagonists of conadotropin-releasing hormone-2, and use thereof” (priority 2002, published 2006).
Where a SMILES comes first, the peptide text is derived from it. [ ]: non-standard residue; d: D form. dPhe(4-Cl) = N[C@H](Cc1ccc(Cl)cc1)C(=O)O; d2Nal = N[C@H](Cc1ccc2ccccc2c1)C(=O)O; dCit = NC(=O)NCCC[C@@H](N)C(=O)O; d3Pal = N[C@H](Cc1cccnc1)C(=O)O; pGlu = O=C1CC[C@@H](C(=O)O)N1

Legend:
Primate GnRH-2 receptor [1] = experiment: Inhibition of GnRH-2-induced c-fos-luc luciferase activity in cells expressing Primate GnRH-2 receptor; assay type: cell-based; conditions: treated at the same time as GnRH-2
Experimental: (§1) Complimentary DNA (cDNA) for a Primate GnRH-2 receptor was obtained from a CV-1 cell genome. […] Plasmids having Primate GnRH-2 receptors where transfected into CV-1 cells. To assay the activity of the receptor, c-fos-luc where a luciferase gene is fused with a c-fos promoter was co-transfected as a probe gene. After 48 hours from transfection, the cells were treated with GnRH-2 agonists and then the activity of luciferase was assayed (Seong et al., Endocrinology vol 144 2003, 454-466).
In the same manner as in 2-3 above, Primate GnRH-2 receptors were co-transfected along with c-fos-luc reporter genes, and after 48 hours, GnRH-2 and GnRH-2 antagonists were treated thereinto at the same time and then the effect of GnRH-2 antagonists was observed.

rat GnRHR [2] = target: T1, rat GnRHR (Rattus norvegicus, UniProt P30969); experiment: Inhibition of GnRH-1-induced IP production in GH3 cells expressing rat GnRHR; assay type: cell-based
T1 construct: expressed in transfected cells; host or cells: GH3 cells, retroviral infection
T1 sequence (P30969 1-327): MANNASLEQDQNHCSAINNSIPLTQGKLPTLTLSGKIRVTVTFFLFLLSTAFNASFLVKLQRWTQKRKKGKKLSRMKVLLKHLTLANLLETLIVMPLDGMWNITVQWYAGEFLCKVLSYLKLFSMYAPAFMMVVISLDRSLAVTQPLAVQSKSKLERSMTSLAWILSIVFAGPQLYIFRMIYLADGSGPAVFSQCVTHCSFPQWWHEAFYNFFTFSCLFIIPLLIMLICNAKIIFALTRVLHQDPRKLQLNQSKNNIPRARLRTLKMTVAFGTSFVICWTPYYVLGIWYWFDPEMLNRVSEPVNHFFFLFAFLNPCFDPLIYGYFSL
Experimental: GH3 cell lines were obtained from the Cell Line Bank at the Cancer Research Center, Seoul National University College of Medicine, located in Seoul, Republic of Korea. The GH3 cell lines were infected with retroviruses comprising genes encoding bfGnRHR-1, bfGnRHR-2, and bfGnRHR-3 which are bullfrog GnRH receptors, and rat GnRHR, and cell lines expressing each of these receptors were obtained. The GH3 cells expressing bfGnRHR-1, bfGnRHR-2, bfGnRHR-3, and rat GnRHR were cultured on 12-well plates. After 24 hours, the cells were cultured again for 24 hours in a media containing no inositol, to which H^3-myoinositol was added. The resultant cells were washed with buffer A (140 mM NaCl, 20 mM HEPES, 4 mM KCl, 8 mM D-Glucose, 1 mM MgCl2, 1 mM CaCl2, 1 mg/ml BSA) and then cultured in buffer A containing 10 mM LiCl at 37°C. for 30 minutes. Thereafter, they were treated with GnRH having a suitable concentration, cultured at 37° C. for another 30 minutes, and then the media was eliminated. The cells were treated with 10 mM of ice-cold formic acid to terminate the reaction, and the cell extracts were mixed with Dowex anionic exchange resins. These resins were washed with distilled water, IP was extracted with 1 M ammonium formate/0.1 M formic acid, and cpm (count per minute) was determined.
However, Trptorelix-1 could reduce the production of IP induced by 1 nM GnRH-2, in a concentration-dependent manner (FIG. 6a to FIG. 6c).

TSU-Pri cells = experiment: Binding of radiolabeled GnRH to TSU-Pri prostate cancer cells; design: species or system human; conditions: room temperature, 6 hours
Experimental: TSU-Pri, which is one of the prostate cancer cell lines, was cultured along with the radiolabeled I^125GnRH-1 and I^125GnRH-2. […] The radiolabeled GnRH and the cells were cultured at room temperature for 6 hours, and then washed with PBS (phosphate-buffered saline) several times to eliminate the unbound GnRH. Thereafter, the cells were isolated and radioactivity from the cells was measured using a y-counter.

rat GnRHR [3] = target: T1, rat GnRHR; experiment: Inositol phosphate (IP) production in GH3 cells expressing rat GnRHR; assay type: cell-based; conditions: for EC50: GH3 cells, 30 min, given as log EC50 (negative values)
Source text: The GnRH receptor, a membrane protein connected with the G protein, activates the G protein when activated by a ligand, and the activated G protein activates phospholipase C and thereby the synthesis of inositol phosphate (IP), which is the second transmitter in cells, is increased. Based on this principle, the activity of a receptor can be investigated by measuring the amount of IP within cells. GH3 cell lines were obtained from the Cell Line Bank at the Cancer Research Center, Seoul National University College of Medicine, located in Seoul, Republic of Korea. The GH3 cell lines were infected with retroviruses comprising genes encoding […]-2, and bfGnRHR-3 which are bullfrog GnRH receptors, and rat GnRHR, and cell lines expressing each of these receptors were obtained. The GH3 cells expressing […]-3, and rat GnRHR were cultured on 12-well plates. After 24 hours, the cells were cultured again for 24 hours in a media containing no inositol, to which H^3-myoinositol was added. […] Thereafter, they were treated with GnRH having a suitable concentration, cultured at 37° C. for another 30 minutes, and then the media was eliminated. The cells were treated with 10 mM of ice-cold formic acid to terminate the reaction, and the cell extracts were mixed with Dowex anionic exchange resins. These resins were washed with distilled water, IP was extracted with 1 M ammonium formate/0.1 M formic acid, and cpm (count per minute) was determined. The GH3 cell lines were infected with retroviruses comprising genes encoding […]-2, and bfGnRHR-3 which are bullfrog GnRH receptors, and rat GnRHR, and cell lines expressing each of these receptors were obtained.

rat GnRHR [4] = target: T1, rat GnRHR; experiment: I125-GnRH-2 competitive ligand-receptor binding, membranes of GH3 cells expressing rat GnRHR; conditions: competition with I125-GnRH-2, 4 °C, 16 hours; read-out: Binding affinity (log IC50 value) (converted)
Experimental: To determine the binding affinity between GnRH and GnRH receptors, GnRH-2 was radiolabeled with I^125. […] After 48 hours, the cells were homogenized to obtain cellular membranes, which were then dissolved in binding buffer (40 mM Tris, pH 7.4, 2 mM MgCl2). 20 μg of membrane proteins were reacted with I^125-GnRH-2 at 4° C. for 16 hours. […] After the reaction was completed, 1^125-GnRH-2 bound to the receptors was filtered using a Brandel harvester, and cpm was measured using a y-counter.

bfGnRHR-1 = experiment: Inositol phosphate (IP) production in GH3 cells expressing bfGnRHR-1; assay type: cell-based, bullfrog
Source text: The GnRH receptor, a membrane protein connected with the G protein, activates the G protein when activated by a ligand, and the activated G protein activates phospholipase C and thereby the synthesis of inositol phosphate (IP), which is the second transmitter in cells, is increased. Based on this principle, the activity of a receptor can be investigated by measuring the amount of IP within cells. GH3 cell lines were obtained from the Cell Line Bank at the Cancer Research Center, Seoul National University College of Medicine, located in Seoul, Republic of Korea. The GH3 cell lines were infected with retroviruses comprising genes encoding […]-2, and bfGnRHR-3 which are bullfrog GnRH receptors, and rat GnRHR, and cell lines expressing each of these receptors were obtained. The GH3 cells expressing […]-3, and rat GnRHR were cultured on 12-well plates. After 24 hours, the cells were cultured again for 24 hours in a media containing no inositol, to which H^3-myoinositol was added. […] Thereafter, they were treated with GnRH having a suitable concentration, cultured at 37° C. for another 30 minutes, and then the media was eliminated. […] These resins were washed with distilled water, IP was extracted with 1 M ammonium formate/0.1 M formic acid, and cpm (count per minute) was determined. […]

Primate GnRH-2 receptor [5] = experiment: c-fos-luc luciferase activation in CV-1 cells expressing Primate GnRH-2 receptor; assay type: cell-based
Experimental: as §1
Of the GnRH-2 receptors, [D-Ala^6]GnRH-2 performed excellently, showing effects about 3 times that of a wild-type ligand, GnRH-2. […] When analogs where the 5th, 7th, and 8th amino acids of [D-Ala^6]GnRH-2 are substituted were used, it was observed that their effects were weaker than [D-Ala^6]GnRH-2, and therefore it can be seen that it is important to maintain His, Trp, and Tyr that are found at the 5th, 7th, and 8th positions of GnRH-2 as they are (FIG. 3b).

CC(=O)N[C@H](Cc1ccc2ccccc2c1)C(=O)N[C@H](Cc1ccc(Cl)cc1)C(=O)N[C@H](Cc1cccnc1)C(=O)N[C@@H](CO)C(=O)N[C@@H](Cc1ccc(O)cc1)C(=O)N[C@H](CCCNC(N)=O)C(=O)N[C@@H](CC(C)C)C(=O)N[C@@H](CCCNC(=N)N)C(=O)N1CCC[C@H]1C(=O)N[C@H](C)C(N)=O [Cetrorelix, Ac-D-2Nal-(4Cl)-D-Phe-D-3Pal-Ser-Tyr-D-Cit-Leu-Arg-Pro-D-Ala-NH2, reference compound] (Ac-[d2Nal][dPhe(4-Cl)][d3Pal]SY[dCit]LRP[dA]-NH2)
effect on luciferase activity induced by GnRH-2 (Primate GnRH-2 receptor [1]): no effect
IC50 (rat GnRHR [2]): 0.00933 nM

NC(=O)CNC(=O)[C@@H]1CCCN1C(=O)[C@H](Cc1ccc(O)cc1)NC(=O)[C@H](Cc1c[nH]c2ccccc12)NC(=O)CNC(=O)[C@H](Cc1c[nH]cn1)NC(=O)[C@H](CO)NC(=O)[C@H](Cc1c[nH]c2ccccc12)NC(=O)[C@H](Cc1c[nH]cn1)NC(=O)[C@@H]1CCC(=O)N1 [GnRH-2] ([pGlu]HWSHGWYPG-NH2)
binding of the radiolabeled ligand to TSU-Pri cells (TSU-Pri cells): binding with cells was observed
effect of unradiolabeled competitor on binding of radiolabeled GnRH-2 to TSU-Pri cells (TSU-Pri cells): the binding was reduced
EC50 (rat GnRHR [3]): 8.71 nM
sensitivity compared with GnRH-1 (rat GnRHR [3]; rat GnRHR): a sensitivity lower than 10-fold
IC50 (rat GnRHR [4]): 832 nM

CC(=O)N[C@H](Cc1ccc2ccccc2c1)C(=O)N[C@H](Cc1ccc(Cl)cc1)C(=O)N[C@H](Cc1cccnc1)C(=O)N[C@@H](CO)C(=O)N[C@@H](Cc1c[nH]cn1)C(=O)N[C@H](CCCNC(N)=O)C(=O)N[C@@H](Cc1c[nH]c2ccccc12)C(=O)N[C@@H](Cc1ccc(O)cc1)C(=O)N1CCC[C@H]1C(=O)N[C@H](C)C(N)=O [Trptorelix-2, Ac-D2Nal-(4Cl)D-Phe-D-3Pal-Ser-His-DCit-Trp-Tyr-Pro-DAla-NH2] (Ac-[d2Nal][dPhe(4-Cl)][d3Pal]SH[dCit]WYP[dA]-NH2)
effect on luciferase activity induced by GnRH-2 (Primate GnRH-2 receptor [1]): reduced in a concentration-dependent manner

NC(=O)CNC(=O)[C@@H]1CCCN1C(=O)[C@H](Cc1ccc(O)cc1)NC(=O)[C@H](Cc1c[nH]c2ccccc12)NC(=O)[C@@H](Cc1c[nH]c2ccccc12)NC(=O)[C@H](Cc1c[nH]cn1)NC(=O)[C@H](CO)NC(=O)[C@H](Cc1c[nH]c2ccccc12)NC(=O)[C@H](Cc1c[nH]cn1)NC(=O)[C@@H]1CCC(=O)N1 [[D-Trp^6]GnRH-2, reference compound] ([pGlu]HWSH[dW]WYPG-NH2)
concentration activating bfGnRHR-1, fold lower than GnRH-2 (bfGnRHR-1): similar
effect reduced, fold, as compared with GnRH-2 (Primate GnRH-2 receptor [5]): ~1.2 fold
EC50 (rat GnRHR [3]): 12 nM
IC50 (rat GnRHR [4]): 97.7 nM

Ac-D2Nal-(4Cl)D-Phe-D-3Pal-Ser-Tyr-DCit-Trp-Leu-Pro-DAla-NH2 (Ac-[d2Nal][dPhe(4-Cl)][d3Pal]SY[dCit]WLP[dA]-NH2; SMILES CC(=O)N[C@H](Cc1ccc2ccccc2c1)C(=O)N[C@H](Cc1ccc(Cl)cc1)C(=O)N[C@H](Cc1cccnc1)C(=O)N[C@@H](CO)C(=O)N[C@@H](Cc1ccc(O)cc1)C(=O)N[C@H](CCCNC(N)=O)C(=O)N[C@@H](Cc1c[nH]c2ccccc12)C(=O)N[C@@H](CC(C)C)C(=O)N1CCC[C@H]1C(=O)N[C@H](C)C(N)=O) [Trptorelix-3]
effect on luciferase activity induced by GnRH-2 (Primate GnRH-2 receptor [1]): no effect

[D-Ala^6]GnRH-1: the agonist of GnRH-1 [reference compound]
sensitivity as compared with GnRH-2 (Primate GnRH-2 receptor [5]): very low sensitivity

p-Glu-His-Trp-Ser-His-D-Lys-Trp-Tyr-Pro-Gly-NH2 ([pGlu]HWSH[dK]WYPG-NH2; SMILES NCCCC[C@@H](NC(=O)[C@H](Cc1c[nH]cn1)NC(=O)[C@H](CO)NC(=O)[C@H](Cc1c[nH]c2ccccc12)NC(=O)[C@H](Cc1c[nH]cn1)NC(=O)[C@@H]1CCC(=O)N1)C(=O)N[C@@H](Cc1c[nH]c2ccccc12)C(=O)N[C@@H](Cc1ccc(O)cc1)C(=O)N1CCC[C@H]1C(=O)NCC(N)=O) [[D-Lys^6]GnRH-2]
effect reduced, fold, as compared with GnRH-2 (Primate GnRH-2 receptor [5]): about 1.5 fold
